We go through nine compounds from US8658616B2, “Nucleoside aryl phosphoramidates and their use as anti-viral agents for the treatment of hepatitis C virus” (University College Cardiff Consultants Limited, priority 2006, dated 2014).

SMILES strings stand for the structures. Where “and” joins values, the source holds several entries; their conditions need not be identical. Identical values can stand only once. Like-named read-outs stand apart in the source and are kept apart here.

Data set [1] is described as follows: CC50 (cytotoxicity, Table I). The class given is cell-based. The settings on record: human, Huh 7 cells; method and cell line not described.
The subject of data set [2] is Huh 7 cells. Nature of the data set: CC50 (cytotoxicity, Table I). The class given is cell-based. Conditions: method and cell line not described.
Data set [3] concerns subgenomic HCV replicons I389luc-ubi-neo/NS3-3′/5.1 (Huh 5-2). Nature of the data set: Anti-HCV assay in Huh 5-2 cells (luciferase replicon). The class given is cell-based, hepatitis C virus (HCV). The settings on record: for potency with respect to HCV compared with compound CHC5 (free nucleoside): comparison of Table I data. An excerpt:
(§1) Anti-HCV assay in Huh 7 cells. Huh 7 cells containing subgenomic HCV replicons I389luc-ubi-neo/NS3-3′/5.1 (Huh 5-2) or I377/NS3-3′/wt (Huh 9-13) have been described (Lohmann V, Korner F, Koch J, Herian U, Theilmann L, Bartenschlager R. (1999) Replication of subgenomic hepatitis C virus RNAs in a hepatoma cell line. Science 285:110-113. Lohmann V, Korner F, Dobierzewska A, Bartenschlager R. (2001) Mutations in hepatitis C virus RNAs conferring cell culture adaptation. J Virol. 75:1437-1449.). Cells were grown in Dulbecco's modified Eagle's Medium (DMEM; Gibco, Merelbeke, Belgium) supplemented with 10% heat-inactivated fetal bovine serum (FCS) (Integro, Zaandam, The Netherlands), 1× non-essential amino acids (Gibco), 100 IU/ml penicillin (Gibco), 100 μg/ml streptomycin (Gibco) and 250 μg/ml Geneticin (G418, Gibco) for Huh 5-2 cells, 1000 μg/ml G418 for Huh 9-13 cells
Anti-HCV Assay in Huh 5-2 Cells.
Huh 5-2 cells were seeded at a density of 5×10^3 per well in a tissue culture treated white 96-well view plate (Packard, Canberra, Canada) in complete DMEM supplemented with 250 μg/ml G418. Following incubation for 24 h at 37° C. (5% CO2) medium was removed and serial dilutions in complete DMEM (without G418) of the test compounds were added in a total volume of 100 μl. After 4 days of incubation at 37° C., cell culture medium was removed and luciferase activity was determined using the Steady-Glo luciferase assay system (Promega, Leiden, The Netherlands); the luciferase signal was measured using a Luminoskan Ascent (Thermo, Vantaa, Finland). The 50% effective concentration (EC50) was defined as the concentration of compound that reduced the luciferase signal by 50%.
A general note: In antiviral work, replicon cells carry a viral genome segment that copies itself.

Data set [4] relates to subgenomic HCV replicons I377/NS3-3′/wt (Huh 9-13). As to the kind of experiment: Anti-HCV assay in Huh 9-13 cells (RT-qPCR of replicon RNA). The class given is cell-based, hepatitis C virus (HCV). Conditions: read-out: HCV Huh 9-13 EC50.
Description: as §1
Anti-HCV Assay in Huh 9-13 Cells.
Huh 9-13 cells were seeded at a density of 5×10^3 cells per well in 96-well cell culture plates in complete DMEM supplemented with 1000 μg/ml G418. Following incubation for 24 h at 37° C. cell culture medium was removed and serial dilutions of the test compounds in complete DMEM without G418 were added in a total volume of 100 μl. After 4 days of incubation at 37° C., cell culture fluid was removed and monolayers were washed once with phosphate-buffered saline. Cells were lysed in 350 μl RLT buffer (Qiagen, Venlo, The Netherlands) according to the Manufacturer's instruction. Lysates were stored at −80° C. until further use. […]

[5] abbreviates: Huh 5-2 cells, 4 days incubation, concentration that reduced the luciferase signal by 50%, read-out: HCV Huh 5-2 EC50.
Setting [6] is: Hepatitis C virus, Huh-5-2, 96 h, read-out: HCV Huh 5-2 EC50, Huh 5-2 cells, 4 days incubation, concentration that reduced the luciferase signal by 50%.

For the compound `CC1(O)C(O)[C@@H](CO)O[C@H]1n1cnc2c(N)ncnc21` (stereo partly drawn) [CHC1, β-2′-methyl-adenosine, reference compound], the CC50 in data set [1] is 29 µM; in data set [2], > 33 µM. For the same compound, the EC50 in data set [3] (Hepatitis C virus, Huh-5-2, 96 h, Huh 5-2 cells, 4 days incubation, concentration that reduced the luciferase signal by 50%, read-out: HCV Huh 5-2 EC50) is 0.14 µM; in data set [3] (setting [5]), 0.08 µM and 0.13 µM.
Turning to `CCOC(=O)[C@H](C)NP(=O)(OC[C@H]1O[C@@H](n2cnc3c(N)ncnc32)C(C)(O)C1O)Oc1cccc2ccccc12` (stereo partly drawn) [CHC2, β-2′-methyl-adenosine 5′-O-[α-naphthyl(ethoxy-L-alaninyl)]phosphate], the 50% cytotoxic concentration (CC50) in data set [1] is > 50 µM. Also, the EC50 in data set [3] (setting [6]) is 0.12 µM.
With `C[C@H](NP(=O)(OC[C@H]1O[C@@H](n2cnc3c(N)ncnc32)C(C)(O)C1O)Oc1cccc2ccccc12)C(=O)OCc1ccccc1` (stereo partly drawn) [CHC3, β-2′-methyl-adenosine 5′-O-[α-naphthyl(benzoxy-L-alaninyl)]phosphate], in data set [1], the CC50 is 44 µM. Further, in data set [3] (setting [6]), the EC50 amounted to 0.16 µM.
For `C[C@H](NP(=O)(OC[C@H]1O[C@@H](n2cnc3c(N)ncnc32)C(C)(O)C1O)Oc1cccc2ccccc12)C(=O)OC(C)(C)C` (stereo partly drawn) [CHC4, β-2′-methyl-adenosine 5′-O-[α-naphthyl(tert-butoxy-L-alaninyl)]phosphate], the CC50 in data set [1] was > 50 µM. Also, in data set [3] (setting [6]), the EC50 was 2.36 µM.
For the compound `C[C@@]1(O)[C@H](O)[C@@H](CO)O[C@H]1n1cnc2c(=O)[nH]c(N)nc21` [CHC5, β-2′-methyl-guanosine, reference compound], the CC50 in data set [2] is > 50 µM. Besides, the EC50 in data set [4] (Huh 9-13 cells, 4 days incubation, concentration that reduced replicon RNA content by 50% (RT-qPCR)) is 1.5 µM; in data set [3] (setting [5]) it was 3 µM and 5 µM.
Regarding `C[C@H](NP(=O)(OC[C@H]1O[C@@H](n2cnc3c(=O)[nH]c(N)nc32)C(C)(O)C1O)Oc1cccc2ccccc12)C(=O)OCc1ccccc1` (stereo partly drawn) [CHC6, β-2′-methyl-guanosine 5′-O-[α-naphthyl(benzoxy-L-alaninyl)]phosphate], the CC50 in data set [1] is > 50 µM. Also, in data set [4] (Hepatitis C virus, 96 h), the EC50 is 0.06 µM. Moreover, the “potency with respect to HCV compared with compound CHC5 (free nucleoside)” value in data set [3] was “greater potency”.
Consider `CCOC(=O)[C@H](C)NP(=O)(OC[C@H]1O[C@@H](n2cnc3c(=O)[nH]c(N)nc32)C(C)(O)C1O)Oc1cccc2ccccc12` (stereo partly drawn) [CHC7, β-2′-methyl-guanosine 5′-O-[α-naphthyl(ethoxy-L-alaninyl)]phosphate], for which the CC50 in data set [1] was > 50 µM. Also, the EC50 in data set [3] (setting [6]) is 0.15 µM; in data set [3] (read-out: HCV Huh 5-2 EC50, Huh 5-2 cells, 4 days incubation, concentration that reduced the luciferase signal by 50%) it was 0.2 µM and 0.16 µM. For the same compound, in data set [3], the “potency with respect to HCV compared with compound CHC5 (free nucleoside)” value was “greater potency”.
In the case of `C[C@H](NP(=O)(OC[C@H]1O[C@@H](n2cnc3c(=O)[nH]c(N)nc32)C(C)(O)C1O)Oc1cccc2ccccc12)C(=O)OC(C)(C)C` (stereo partly drawn) [CHC8, β-2′-methyl-guanosine 5′-O-[α-naphthyl(tert-butoxy-L-alaninyl)]phosphate], in data set [1], the CC50 is > 50 µM. For the same compound, the EC50 in data set [3] (setting [6]) is > 50 µM.
As to `C[C@H](NP(=O)(OC[C@H]1O[C@@H](n2cnc3c(=O)[nH]c(N)nc32)C(C)(O)C1O)Oc1ccccc1)C(=O)OCc1ccccc1` (stereo partly drawn) [CHC9, β-2′-methyl-guanosine 5′-O-[phenyl(benzoxy-L-alaninyl)]phosphate], the CC50 in data set [1] is > 50 µM. Also, the EC50 in data set [4] (Hepatitis C virus, 96 h) was 4.1 µM; in data set [3] (setting [6]), 36 µM.

One may read the CC50 as the concentration at which the toxic effect on the cells reaches its halfway point.
